The conditions of data set [1]: mouse, in vivo. On the procedure:
(§1) In order to assess these promising ligands as potential theranostics, the library of [^68Ga]Ga-DOTA-peptides was evaluated using static small animal PET imaging and quantifying biodistribution studies. This study was performed to investigate tumor uptake as well as the accumulation of radioligands in other organs. Mice bearing A431-CCK2R tumors were imaged at 1- and 2 hours post tracer injection, and tracer biodistribution was evaluated at the 1 hour and 2.5 hour time points to quantify tumor uptake and retention. […]
(§2) Small Animal PET Imaging and Biodistribution Studies
(§3) Female NSG mice (age 11-14 weeks) were sourced from Animal Resources Centre, (Canning Vale, Western Australia) and were inoculated subcutaneously on the right flank with 1-3 x 106 […]
(§4) A431-CCK2R cells in PBS:Matrigel (1:1). […]
(§5) Mice were assigned to imaging and/or biodistribution groups (tumour volumes: 119-327 mm3).
(§6) The respective 68Ga labelled tracer (1.63–3.81 MBq, 170µL, 13.7–14.2 pmoles) containing vehicle solution (75µL, DMSO:Tween 80: water, 2:2:6 v/v/v) was then administered to mice intravenously via tail vein injection. Three mice were euthanized for biodistribution 1 hour post injection (n=3) and selected tissues were excised, weighed, and counted using a Capintec (Captus 4000e) gamma counter. Three mice were anaesthetised using 1.5% isoflurane and imaged at 1 hour (n=3) and 2 hours (n=3) with a G8 Small Animal PET/CT scanner (Perkin […]
(§7) Elmer/Sofie Biosciences). A 10 min static PET scan was acquired, followed immediately by a CT scan (Supplementary Data, pS51–S55). PET images were acquired using the G8 acquisition engine software and reconstructed using a 3D maximal likelihood and expectation maximization (ML-EM) algorithm. PET images were analysed using VivoQuant software, version 3.0 (inviCRO Imaging Services and Software) to quantify maximum standardised uptake value in regions of interest (SUVmax). Background regions for imaging experiments were calculated by quantitating mean standardised uptake value (SUVmean) of the abdomen and gut region. The region of interest was selected due to low uptake in abdomen/gut during imaging. After imaging the 2-hour time point, mice organs were harvested for biodistribution […]
(§8) For blocking CCK2R binding a solution of N-[(3R)-2,3-Dihydro-1-[2-(2-methylphenyl)-2-oxoethyl]-2-oxo-5-phenyl-1H-1,4-benzodiazepin-3-yl]-N′-(3-methylphenyl)-urea (YM022; Sigma Aldrich) was used. YM022 (75µL of a 1 mg/ml solution constituting DMSO:Tween 80: water, 2:2:6 v/v/v) was added to the respective 68Ga labelled tracer (1.41–3.61 MBq, 100 µL, 13.7–14.2 pmoles) and this mixture ([…]) was administered in three mice intravenously via tail vein injection and organs harvested at 1 hour post injection for biodistribution analysis, as above.
(§9) All animal experiments were performed with the approval of the Peter MacCallum Cancer Centre Animal Experimentation Ethics Committee and in accordance with the Australian code for the care and use of animals for scientific purposes, 8th Edition, 2013 (AEEC Approval

The format of data set [2] is physicochemical. How it is done: Lipophilicity, expressed as the octanol-water partition coefficient, constitutes an important property in drug action, influencing both pharmacokinetic and pharmacodynamics processes. The distribution coefficient (LogD7.4) of [^68Ga]Ga-DOTA-peptides was determined by measuring radioactivity distribution in the aqueous phase (phosphate buffer pH7.4) and the organic phase (n-octanol). […]
To determine the distribution coefficient (logD 7.4), 68Ga radiolabeled peptides [68Ga]Ga-DOTA-GA4, [68Ga]Ga-DOTA-GA7, and [68Ga]Ga-DOTA-GA11–GA13 were diluted to approximately 20 pmol/mL in PBS (pH 7.4) and an equal volume of n-octanol was added. The mixture was vortexed vigorously for 10 cycles of 1 min at room temperature before being centrifuged for 6 min to separate the two phases. Equal volumes from each phase were aliquoted into individual counting tubes and analysed for 1 min using the Perkin Elmer 2480 Wizard2™ gamma counter (PerkinElmer, Massachusetts, USA). The distribution coefficient was calculated using the following equation LogD = […]. […]

The format of data set [3] is in vitro ADME, mouse. How it is done:
Metabolic stability is an important determinant of the efficacy of peptide radiopharmaceuticals and their progression as promising theranostic candidates. In vitro, metabolic degradation through hepatic and renal enzymes can be assessed by utilizing liver and kidney tissue homogenates. Radiolabeled peptides [^68Ga]Ga-DOTA-GA4, and D-Ala substituted variants [^68Ga]Ga-DOTA-GA7, [^68Ga]Ga-DOTA-GA11-GA13 were incubated in liver and kidney mouse homogenates, in human serum at 37°C, and in HEPES buffer (pH 7.4) as a negative control. Following a time course experiment, the metabolites were analyzed using HPLC to quantify the % breakdown of the respective parent peptide. […]
To assess the stability of 68Ga radiolabeled peptides against enzymatic degradation, duplicate samples (750-900 pmol/mL, 2-5MBq) were incubated at 37 ℃ with pooled human serum, 15% […]
mouse kidney homogenate, 30% mouse liver homogenate or 20 mM HEPES, pH 7.3 (control).
Human blood was collected, and serum prepared using SSTII advance vacutainer tubes according to the manufacturer’s instructions (Becton Dickinson, New Jersey, USA). Mouse kidney and liver homogenates were prepared by washing the tissues in ice-cold HEPES buffer, pH 7.3 and placing them in pre-chilled tubes containing HEPES buffer and 2.38 mm metal beads (Mo-Bio Laboratories, Hilden, Germany). Tissues were homogenised using the PowerLyzer24 homogeniser (Qiagen, Hilden, Germany) according to the manufacturer’s instructions. 68Ga radiolabeled peptides were then incubated with the various lysates at 37 ℃ and samples were collected at 15, 30, 60 and 90 min. Reactions were terminated by addition of an equal volume of acetonitrile and centrifugation for 2 min at 15,000 rpm. Supernatants were diluted in water before being analysed by HPLC using a Kinetex C18 XB column (5µm

A short description of another data set: in vivo. As to conditions: female, NSG, mouse, iv, total radioactivity; for SUV at 1 h / SUV at 2 h: SUVmax. On the procedure:
as §1, §2, §3, §4, §5, §6, §7, §8, §9

Setting [4] is: 3 mg/kg, Uptake in A431-CCK2R Tumors, 1 hr Blocked.
Where [5] appears, read: Uptake in A431-CCK2R Tumors, 1 hr.
Setting [6] is: mouse, tissue homogenate, Half-life (t1/2) in Kidney Homogenate.
Setting [7] is: mouse, tissue homogenate, Half-life (t1/2) in Liver Homogenate.

The text below walks through data of article PMC10945332, “Precision peptide theranostics: developing N- to C-terminus optimized theranostics targeting cholecystokinin-2 receptor” (Theranostics, 2024).

Broadly, the tissue uptake is the percentage of the injected dose found per gram of tissue. A low value points to little accumulation. One may read the logD as the decadic logarithm of the distribution of all forms, ionised or not, between an organic phase and buffer at a given pH. Low values mean a more hydrophilic compound, high ones a more lipophilic compound. Usually half-life stands for how long it takes for the measured level to halve. A low value points to fast loss.

Read-outs that look alike come from different tables or passages of the source. Where a SMILES comes first, the peptide text is derived from it. [ ]: non-standard residue; d: D form. The star is where a group is joined. DOTA = O=C(O)CN1CCN(CC(=O)O)CCN(CC(=O)*)CCN(CC(=O)O)CC1; 1Nal = N[C@@H](Cc1cccc2ccccc12)C(=O)O; NMeF = CN[C@@H](Cc1ccccc1)C(=O)O; NMeNle = CCCC[C@H](NC)C(=O)O; Sar = CNCC(=O)O

For `CCCC[C@@H](C(=O)N[C@@H](CC(=O)O)C(=O)N[C@@H](Cc1cccc2ccccc12)C(N)=O)N(C)C(=O)[C@H](Cc1c[nH]c2ccccc12)NC(=O)CN(C)C(=O)[C@H](Cc1ccc(O)cc1)NC(=O)[C@H](C)NC(=O)[C@@H](CCC(=O)O)NC(=O)[C@@H](CCC(=O)O)NC(=O)[C@@H](CCC(=O)O)NC(=O)[C@@H](C)NC(=O)[C@@H](CCC(=O)O)NC(=O)[C@@H](CCC(=O)O)NC(=O)CN1CCN(CC(=O)O)CCN(CC(=O)O)CCN(CC(=O)O)CC1` [[^68Ga]Ga-DOTA-GA7, metal not drawn] ({DOTA}-[dE][dE][dA][dE][dE][dE]AY[Sar]W[NMeNle]D[1Nal]-NH2), the tissue uptake at 1 h in data set [1] (setting [4]) was 2.76 ± 0.14 %ID/g; in data set [1] (setting [5]), 5.71 ± 1.5 %ID/g; in data set [1] (Uptake in Organs: Blood) it was 0.68 ± 0.31 %ID/g; in data set [1] (Uptake in Organs: Heart), 0.3 ± 0.02 %ID/g; in data set [1] (Uptake in Organs: Kidneys), 8.67 ± 0.8 %ID/g; in data set [1] (Uptake in Organs: Liver), 0.3 ± 0.01 %ID/g. For the same compound, the tissue uptake at 1 h in data set [1] (Uptake in Organs: Lungs) worked out at 0.57 ± 0.03 %ID/g; in data set [1] (Uptake in Organs: Muscle) it was 0.12 ± 0.02 %ID/g; in data set [1] (Uptake in Organs: Spleen), 0.24 ± 0.02 %ID/g; in data set [1] (Uptake in Organs: Stomach), 2.22 ± 0.14 %ID/g. In data set [1] (Uptake in A431-CCK2R Tumors), this compound showed a tissue uptake at 2.5 h of 7.36 ± 1.16 %ID/g. Also, the pH-dependent lipophilicity (logD) in data set [2] is -2.88 ± 0.09. Besides, the half-life is 3.76 h in data set [3] (setting [6]) and 5.87 h in data set [3] (setting [7]). Besides, the tissue to tissue ratio at 1 h in the data set “in vivo” is 17.3 ± 1.84. In addition, the SUV at 1 h in the data set “in vivo” stood at 0.65 SUV. For the same compound, in “in vivo”, the SUV at 2 h worked out at 0.61 SUV.

For the compound `CCCC[C@@H](C(=O)N[C@@H](CC(=O)O)C(=O)N(C)[C@@H](Cc1ccccc1)C(N)=O)N(C)C(=O)[C@H](Cc1c[nH]c2ccccc12)NC(=O)CN(C)C(=O)[C@H](Cc1ccc(O)cc1)NC(=O)[C@H](C)NC(=O)[C@@H](CCC(=O)O)NC(=O)[C@@H](CCC(=O)O)NC(=O)[C@@H](CCC(=O)O)NC(=O)[C@@H](C)NC(=O)[C@@H](CCC(=O)O)NC(=O)[C@@H](CCC(=O)O)NC(=O)CN1CCN(CC(=O)O)CCN(CC(=O)O)CCN(CC(=O)O)CC1` [[^68Ga]Ga-DOTA-GA11, metal not drawn] ({DOTA}-[dE][dE][dA][dE][dE][dE]AY[Sar]W[NMeNle]D[NMeF]-NH2), the tissue uptake at 1 h in data set [1] (setting [4]) is 2.07 ± 0.15 %ID/g; in data set [1] (setting [5]) it was 5.6 ± 1.16 %ID/g; in data set [1] (Uptake in Organs: Blood) it was 0.46 ± 0.08 %ID/g; in data set [1] (Uptake in Organs: Heart) it was 0.27 ± 0.08 %ID/g; in data set [1] (Uptake in Organs: Kidneys) it was 7.38 ± 1.54 %ID/g; in data set [1] (Uptake in Organs: Liver), 0.29 ± 0.01 %ID/g. Also, the tissue uptake at 1 h was determined as 0.59 ± 0.02 %ID/g in data set [1] (Uptake in Organs: Lungs), 0.09 ± 0.02 %ID/g in data set [1] (Uptake in Organs: Muscle), 0.34 ± 0.08 %ID/g in data set [1] (Uptake in Organs: Spleen) and 1.04 ± 0.06 %ID/g in data set [1] (Uptake in Organs: Stomach). The tissue uptake at 2.5 h in data set [1] (Uptake in A431-CCK2R Tumors) worked out at 5.42 ± 0.7 %ID/g. The logD in data set [2] is -3.56 ± 0.01. Also, the “metabolites in kidney homogenates” value in data set [3] was “no observable metabolites detected”. Moreover, the “metabolites in liver homogenates” value in data set [3] is on record as “no observable metabolites detected”. Moreover, in the data set “in vivo”, the tissue to tissue ratio at 1 h came to 14.4 ± 2.23. The SUV at 1 h in the data set “in vivo” amounted to 0.39 SUV. Besides, the SUV at 2 h in the data set “in vivo” is 0.34 SUV.

On to `CCCC[C@@H](C(=O)N[C@@H](CC(=O)O)C(=O)N[C@@H](Cc1ccccc1)C(N)=O)N(C)C(=O)[C@H](Cc1c[nH]c2ccccc12)NC(=O)CN(C)C(=O)[C@H](Cc1ccc(O)cc1)NC(=O)[C@H](C)NC(=O)[C@@H](CCC(=O)O)NC(=O)[C@@H](CCC(=O)O)NC(=O)[C@@H](CCC(=O)O)NC(=O)[C@@H](C)NC(=O)[C@@H](CCC(=O)O)NC(=O)[C@@H](CCC(=O)O)NC(=O)CN1CCN(CC(=O)O)CCN(CC(=O)O)CCN(CC(=O)O)CC1` [[^68Ga]Ga-DOTA-GA12, metal not drawn] ({DOTA}-[dE][dE][dA][dE][dE][dE]AY[Sar]W[NMeNle]DF-NH2), for which the tissue uptake at 1 h turned out to be 2.53 ± 0.11 %ID/g in data set [1] (setting [4]); 6.7 ± 0.69 %ID/g in data set [1] (setting [5]); 0.29 ± 0.01 %ID/g in data set [1] (Uptake in Organs: Blood); 0.14 ± 0.01 %ID/g in data set [1] (Uptake in Organs: Heart); 4.52 ± 0.38 %ID/g in data set [1] (Uptake in Organs: Kidneys); 0.19 ± 0.02 %ID/g in data set [1] (Uptake in Organs: Liver). The tissue uptake at 1 h was 0.34 ± 0.04 %ID/g in data set [1] (Uptake in Organs: Lungs), 0.09 ± 0.02 %ID/g in data set [1] (Uptake in Organs: Muscle), 0.25 ± 0.04 %ID/g in data set [1] (Uptake in Organs: Spleen) and 1.38 ± 0.08 %ID/g in data set [1] (Uptake in Organs: Stomach). In data set [1] (Uptake in A431-CCK2R Tumors), this compound yielded a tissue uptake at 2.5 h of 6.81 ± 1.4 %ID/g. Besides, the log distribution coefficient (logD) in data set [2] was -4.06 ± 0.14. Also, the “Half-life (t1/2) in Kidney Homogenate” value in data set [3] (mouse, tissue homogenate) was 0.7722 h. For the same compound, in data set [3] (mouse, tissue homogenate), the “Half-life (t1/2) in Liver Homogenate” value amounted to 1.071 h. Besides, the half-life in data set [3] (setting [6]) worked out at 0.772 h; in data set [3] (setting [7]), 1.07 h. Moreover, the tissue to tissue ratio at 1 h in “in vivo” was determined as 24.9 ± 4.57. The SUV at 1 h in “in vivo” was found to be 0.5 SUV. The SUV at 2 h in the data set “in vivo” came to 0.45 SUV.
